A short description of this data set: TGA (thermogravimetric analysis) of thermal stability. To be noted: FIG. 3, ranking among the three compounds.

With `OC[C@H]1O[C@@H]2O[C@H]3[C@H](O)[C@@H](O)[C@@H](O[C@H]4[C@H](O)[C@@H](O)[C@@H](O[C@H]5[C@H](O)[C@@H](O)[C@@H](O[C@H]6[C@H](O)[C@@H](O)[C@@H](O[C@H]7[C@H](O)[C@@H](O)[C@@H](O[C@H]8[C@H](O)[C@@H](O)[C@@H](O[C@H]1[C@H](O)[C@H]2O)O[C@@H]8CO)O[C@@H]7CO)O[C@@H]6CO)O[C@@H]5CO)O[C@@H]4CO)O[C@@H]3CO` [β-CD, β-cyclodextrin], the thermal stability entry is listed as “highest”.

The values above are taken from patent US20070015729A1, “Conjugate of cyclodextrin and poly(oxyethylene), and process for preparation thereof” (priority 2005, published 2007).
